Earlier results as cited in PubChem BioAssay AID1259409 (Chemical Carcinogenesis Research Information System (CCRIS), 2018).

System: rodent chemically induced tumor inhibition, incidence and multiplicity
Assay: CCRIS tumor inhibitor studies
Text: The CCRIS database contains chemical records with carcinogenicity, mutagenicity, tumor promotion, and tumor inhibition test results. It was developed by the National Cancer Institute (NCI). Data are derived from studies cited in primary journals, current awareness tools, NCI reports, and other sources. Test results have been reviewed by experts in carcinogenesis and mutagenesis.
CCRIS provides historical information from the years 1985 - 2011. It is no longer updated.
This is an archive assay for CCRIS tumor inhibitor studies.

For `Clc1ccc(-c2cc(Cl)c(Cl)c(Cl)c2)cc1Cl`, the “tumour outcome (control, treated, inhibition, significance)” value (Carcinogen: 7,12-DIMETHYLBENZ[A]ANTHRACENE, 57-97-6, Dose [Inhibitor]: 0, 2.5 NG/KG BW ADMINISTERED INTRAGASTRICALLY TO MOTHERS ON DAYS 13 TO 19 POST-CONCEPTION (STUDY DURATION: 178 D), Route [Inhibitor]: IN UTERO, ORAL, Species: RAT, Strain/Sex: SD/FEMALE, Target Tissue: Type of Lesion: MAMMARY GLAND: TUMOR, Dose [Carcinogen]: 20 MG/KG BW ADMINISTERED TO 50-DAY OLD OFFSPRING) is listed as 93%, 93%, 0%, not significant, the “tumour outcome (control, treated, inhibition, significance)” value (Carcinogen: 7,12-DIMETHYLBENZ[A]ANTHRACENE, 57-97-6, Dose [Inhibitor]: 0, 7.5 UG/KG BW ADMINISTERED INTRAGASTRICALLY TO MOTHERS ON DAYS 13 TO 19 POST-CONCEPTION (STUDY DURATION: 178 D), Route [Inhibitor]: IN UTERO, ORAL, Species: RAT, Strain/Sex: SD/FEMALE, Target Tissue: Type of Lesion: MAMMARY GLAND: TUMOR, Dose [Carcinogen]: 20 MG/KG BW ADMINISTERED TO 50-DAY OLD OFFSPRING) is listed as 93%, 78%, 17%, p<0.05 and the “tumour outcome (control, treated, inhibition, significance)” value (Carcinogen: 7,12-DIMETHYLBENZ[A]ANTHRACENE, 57-97-6, Dose [Inhibitor]: 0, 250 NG/KG BW ADMINISTERED INTRAGASTRICALLY TO MOTHERS ON DAYS 13 TO 19 POST-CONCEPTION (STUDY DURATION: 178 D), Route [Inhibitor]: IN UTERO, ORAL, Species: RAT, Strain/Sex: SD/FEMALE, Target Tissue: Type of Lesion: MAMMARY GLAND: TUMOR, Dose [Carcinogen]: 20 MG/KG BW ADMINISTERED TO 50-DAY OLD OFFSPRING) is listed as 93%, 96%, -3%, not significant.

In the case of `CSc1ccc(O)cc1`, the “tumour outcome (control, treated, inhibition, significance)” value (Carcinogen: BENZO[A]PYRENE, 50-32-8, Dose [Inhibitor]: 0.03 MMOL/G OF DIET DAILY STARTING 7 D BEFORE AND CONTINUING THROUGH 3 D AFTER CARCINOGEN TREATMENT FOLLOWED BY OBSERVAT, Route [Inhibitor]: ORAL, Species: MOUSE, Strain/Sex: ICR/FEMALE, Target Tissue: Type of Lesion: FORESTOMACH: NEOPLASM, Dose [Carcinogen]: 1 MG IN 0.2 ML CORN OIL 2/WK FOR 4 WK, Promoter: NONE USED) is listed as 100%, 89%, 11%, not significant.

In the case of `CC(C)CC(CN[C@@H](CC(C)C)C(N)=O)NC(=O)[C@H](Cc1cnc[nH]1)NC(=O)CNC(=O)[C@@H](NC(=O)C(C)NC(=O)[C@H](Cc1c[nH]c2ccccc12)NC(=O)[C@H](CCC(N)=O)NC(=O)[C@H]1Cc2c([nH]c3ccccc23)CN1)C(C)C` (some centres not stated), the “tumour outcome (control, treated, inhibition, significance)” value (Carcinogen: N-NITROSOBIS(2-OXOPROPYL)AMINE, 60599-38-4, Dose [Inhibitor]: 0, 5 UG/D FROM OSMOTIC PUMP FOR 2 MO, Route [Inhibitor]: SUBCUTANEOUS IMPLANT, Species: HAMSTER, Strain/Sex: SYRIAN/FEMALE, Target Tissue: Type of Lesion: PANCREAS: ADENOCARCINOMA) is listed as 10/11 (91%), 7/11 (64%), 30%, not calculated, the “tumour outcome (control, treated, inhibition, significance)” value (Carcinogen: N-NITROSOBIS(2-OXOPROPYL)AMINE, 60599-38-4, Dose [Inhibitor]: 0, 20 UG/D BEGINNING 18 WK POST CARCINOGEN TREATMENT AND CONTINUING FOR 8 WK (STUDY DURATION: 32 WK), Route [Inhibitor]: SUBCUTANEOUS, Species: HAMSTER, Strain/Sex: SYRIAN/FEMALE, Target Tissue: Type of Lesion: PANCREAS: ADENOCARCINOMA, Dose [Carcinogen]: TREATMENT FOR 6 WK (DOSE NOT STATED), Promoter: NONE USED) is listed as 12/12 (100%), 9/12 (75%), 25%, not significant and the “tumour outcome (control, treated, inhibition, significance)” value (Carcinogen: N-NITROSOBIS(2-OXOPROPYL)AMINE, 60599-38-4, Dose [Inhibitor]: 0, 20 UG/D FROM OSMOTIC PUMP FOR 2 MO, Route [Inhibitor]: SUBCUTANEOUS IMPLANT, Species: HAMSTER, Strain/Sex: SYRIAN/FEMALE, Target Tissue: Type of Lesion: PANCREAS: ADENOCARCINOMA, Promoter: NONE USED) is listed as 12/12 (100%), 6/12 (50%), 50%, not calculated. For the same compound, the “tumour outcome (control, treated, inhibition, significance)” value (Carcinogen: N-NITROSOBIS(2-OXOPROPYL)AMINE, 60599-38-4, Dose [Inhibitor]: 0, 30 UG/D BEGINNING 18 WK POST CARCINOGEN TREATMENT AND CONTINUING FOR 8 WK (STUDY DURATION: 32 WK), Route [Inhibitor]: SUBCUTANEOUS, Species: HAMSTER, Strain/Sex: SYRIAN/FEMALE, Target Tissue: Type of Lesion: PANCREAS: ADENOCARCINOMA, Dose [Carcinogen]: TREATMENT FOR 6 WK (DOSE NOT STATED), Promoter: NONE USED) was 11/12 (92%), 8/12 (67%), 27%, not significant, the “tumour outcome (control, treated, inhibition, significance)” value (Carcinogen: N-NITROSOBIS(2-OXOPROPYL)AMINE, 60599-38-4, Dose [Inhibitor]: 0, 30 UG/D FOR 2 MO, Route [Inhibitor]: SUBCUTANEOUS, Species: HAMSTER, Strain/Sex: SYRIAN/FEMALE, Target Tissue: Type of Lesion: PANCREAS: ADENOCARCINOMA) was 11/13 (85%), 12/13 (92%), -8%, not calculated and the “tumour outcome (control, treated, inhibition, significance)” value (Carcinogen: N-NITROSOBIS(2-OXOPROPYL)AMINE, 60599-38-4, Dose [Inhibitor]: 0, 60 UG/D BEGINNING 18 WK POST CARCINOGEN TREATMENT AND CONTINUING FOR 8 WK (STUDY DURATION: 32 WK), Route [Inhibitor]: SUBCUTANEOUS, Species: HAMSTER, Strain/Sex: SYRIAN/FEMALE, Target Tissue: Type of Lesion: PANCREAS: ADENOCARCINOMA, Dose [Carcinogen]: TREATMENT FOR 6 WK (DOSE NOT STATED), Promoter: NONE USED) was 12/12 (100%), 2/12 (17%), 83%, p<0.01.

In the case of `C=CCc1cc(OC)c2c(c1)OCO2`, the “tumour outcome (control, treated, inhibition, significance)” value (Carcinogen: BENZO[A]PYRENE, 50-32-8, Dose [Inhibitor]: 0, 10 MG SUSPENDED IN 0.3 ML COTTONSEED OIL 3/WK FOR 4 WK ON DAYS OTHER THAN THE CARCINOGEN TREATMENT, 3 ADDITIONAL DOSE, Route [Inhibitor]: GAVAGE, Species: MOUSE, Strain/Sex: STRAIN-A/FEMALE, Target Tissue: Type of Lesion: FORESTOMACH: TUMOR, Dose [Carcinogen]: 1 MG IN 0.3 ML COTTONSEED OIL 2/WK FOR 4 WK, Promoter: NONE USED) is given as 12/17 (71%), 13/18 (72%), -1%, not significant and the “tumour outcome (control, treated, inhibition, significance)” value (Carcinogen: BENZO[A]PYRENE, 50-32-8, Dose [Inhibitor]: 0, 10 MG SUSPENDED IN 0.3 ML COTTONSEED OIL 3/WK FOR 4 WK ON DAYS OTHER THAN THE CARCINOGEN TREATMENT, 3 ADDITIONAL DOSE, Route [Inhibitor]: GAVAGE, Species: MOUSE, Strain/Sex: STRAIN-A/FEMALE, Target Tissue: Type of Lesion: LUNG: TUMOR, Dose [Carcinogen]: 1 MG IN 0.3 ML COTTONSEED OIL 2/WK FOR 4 WK, Promoter: NONE USED) is given as 17/17 (100%), 18/18 (100%), 0%, not significant.
